# Tested on: human dermal papilla cells
# Experiment: Human dermal papilla cell proliferation test
# Assay type: cell-based
# Details: 0.002% in culture media; cell count at 12-60 hour; FIG. 1
# Description: The promotion of cell proliferation by adenine was evaluated using human dermal papilla cells, compared with adenosine, and minoxidil under the following conditions, the results are shown in FIG. 1.
# Determination of the proliferation of human dermal papilla cells in the culture media containing adenine, adenosine, and minoxidil. Supplements: 0.002% of adenine, adenosine, minoxidil.
# • (1) Prepare 0.002% adenine, adenosine, minoxidil containing testing media using the hair follicle dermal papilla cell media (cat. No. 611-500, Cell applications, Inc). • (2) Seed the isolated human dermal papilla cells in 96-well culture plate with a density of 5,000 cells per well. Add 0.1 mL prepared culture media into individual well. • (3) At 12, 24, 36, 48 and 60 hour after cell seeding, visually count the total cell number using hemacytometer. • (4) Evaluate the result.
smiles,measurement,value
Nc1ncnc2nc[nH]c12 [adenine],proliferation of human dermal papilla cells (in words),promotes the proliferation

# Source: patent US9126056B2, “Method of promoting hair growth” (ENERGENESIS BIOMEDICAL CO., LTD., priority 2010, dated 2015)
